Laboratory results taken from PMC8335727 (Inorganic Chemistry, 2021).
Like-named read-outs stand apart in the source and are kept apart here.

Key:
[1] = system: SW480, MES-SA, MES-SA/Dx5, HL60, 41M, SK-BR-3; design: method as in PMID 32336116, PMID 22189939, PMID 31250199; conditions: several human cancer cells; ref [36],[58],[80]; read-out: IC50 values reported; cited from earlier work
[2] = ref [67]; cited from earlier work
[3] = system: Colo205; design: method as in doi:10.1039/D0NJ01070G; conditions: 72 h of exposure; ref [77]; cited from earlier work
[4] = system: Colo320; design: method as in doi:10.1039/D0NJ01070G; conditions: 72 h of exposure; ref [77]; cited from earlier work
[5] = system: MRC-5; design: method as in doi:10.1039/D0NJ01070G; conditions: 72 h of exposure; ref [77]; cited from earlier work
[6] = system: SW480 cells; assay: Cell cycle distribution by flow cytometry; format: cell-based, human; conditions: 0.01 μM; 24 h
Text: […] TEXT PRINTED IN THE PICTURE: (A) no label printed: S: 27.7% | (B) no label printed: S: 33.8% | (C) no label printed: S: 44.0% | (D) no label printed: S: 46.5% DOUBTS OF THE COPYIST ABOUT THIS PICTURE: No substance labels are printed in the picture, only the panel letters A-D. / The phase label "S" is printed only in panel A. Applying it to the percentages in panels B, C and D is assumed from where the marker line sits.

[7] = system: Colo205; assay: MTT cytotoxicity assay, Colo205; format: cell-based; conditions: Homo sapiens, COLO 205, 72 h of exposure
Description: (§1) The in vitro cytotoxicity of the TSCs HL^1–HL^3, copper(II) complexes Cu(HL^1)Cl2, [Cu(L^2)Cl], and Cu(HL^3)Cl2, and oxidized TSCs HL^1a′, HL^1a″, and HL^2c′·CH3COOH was tested in the doxorubicin-sensitive Colo205 and the multidrug-resistant Colo320 human colonic adenocarcinoma cell lines as well as in normal human embryonal lung fibroblast cells (MRC-5) by the colorimetric MTT assay. […]
(§2) 2.5. In vitro cell studies
(§3) 2.5.1. Cell lines and culture conditions
(§4) All cell culture reagents were obtained from Sigma-Aldrich and plastic ware from Sarstedt
(§5) (Germany). Doxorubicin-sensitive human colonic Colo 205 and multidrug resistant
(§6) Colo 320/MDR-LRP adenocarcinoma cell lines were purchased from LGC Promochem,
(§7) Teddington, UK. The cells were cultured in Roswell Park Memorial Institute (RPMI) 1640
(§8) medium supplemented with 10% heat-inactivated fetal bovine serum, 2 mM L-glutamine, 1 mM
(§9) Na-pyruvate and 100 mM Hepes. The cell lines were incubated at 37°C, in a 5% CO2, 95% air
(§10) MRC-5 human embryonal lung fibroblast cell line (ATCC CCL-171) was purchased from LGC
(§11) Promochem, Teddington, UK. The cell line was cultured in Eagle’s Minimal Essential Medi um
(§12) (EMEM, containing 4.5 g/L glucose) supplemented with a non-essential amino acid mixture, a
(§13) selection of vitamins and 10% heat-inactivated fetal bovine serum. The cells were incubated at
(§14) 37°C, in a 5% CO2, 95% air atmosphere. All cell lines were detached with Trypsin-Versene
(§15) (EDTA) solution for 5 min at 37 °C.
(§16) The tested compounds were dissolved in DMSO using 10 mM concentration. Then stock solutions
(§17) were diluted in complete culture medium in 96-well microtiter plates, and two-fold serial dilutions
(§18) of compounds were prepared in 100 µL of RPMI 1640, horizontally. The semi-adherent colonic
(§19) adenocarcinoma cells were treated with Trypsin -Versene (EDTA) solution. They were adjusted to
(§20) a density of 1×10^4 cells in 100 µL of RPMI 1640 medium, and were added to each well, with the
(§21) exception of the medium control wells. The final volume of the wells containing compounds and
(§22) cells was 200 µL. The culture were incubated at 37 °C for 72 h; at the end of the incubation period,
(§23) 20 µL of MTT solution (from a stock solution of 5 mg/mL) were added to each well. After
(§24) incubation at 37 °C for 4 h, 100 µL of SDS solution (10% in 0.01 M HCI) were added to each well
(§25) and the plates were further incubated at 37 °C overnight. The cell growth was determined using
(§26) both methods by measuring the optical density (OD) at 450 nm (ref. 620 nm) with a Multiscan EX
(§27) ELISA reader. Inhibition of the cell growth (expressed as IC 50: inhibitory concentration that
(§28) reduces by 50% the growth of the cells exposed to the tested compounds) was determined from
(§29) the sigmoid curve where 100 – ((ODsample ‒ ODmedium control)/(ODcell control ‒ ODmedium control)) × 100
(§30) values were plotted against the logarithm of compound concentrations. […]
(§31) 0.76 tyrosyl radical/polypeptide. Samples containing 20 µM mR2 in 50 mM HEPES buffer, pH
(§32) 7.50/100 mM NaCl, and 20 µM respective compound in 1% (v/v) DMSO/H2O, and 2 mM

[8] = system: Colo320; assay: MTT cytotoxicity assay, Colo320; format: cell-based; conditions: Homo sapiens, COLO 320, 72 h of exposure
Description: as §1, §2, §3, §4, §5, §6, §7, §8, §9, §10, §11, §12, §13, §14, §15, §16, §17, §18, §19, §20, §21, §22, §23, §24, §25, §26, §27, §28, §29, §30, §31, §32

[9] = system: MRC-5; assay: MTT cytotoxicity assay, MRC-5; format: cell-based; conditions: Homo sapiens, MRC5, 72 h of exposure
Description: as §2, §3
All cell culture reagents were obtained from Sigma-Aldrich and plastic ware from Sarstedt […]
as §10, §11, §12, §13, §14, §15, §16, §17, §18, §19, §20, §21, §22, §23, §24, §25, §26, §27, §28, §29, §30

[10] = biological target: T1, mouse R2 RNR protein (Mus musculus, UniProt P11157); assay: Tyrosyl radical reduction in mouse R2 RNR protein (EPR); format: biochemical; conditions: 20 μM compound; for effect on the tyrosyl radical content in the presence of DTT: 2 mM DTT; for effect on the tyrosyl radical in the absence of DTT: no DTT
T1 construct: made in house
T1 sequence (P11157 1-390): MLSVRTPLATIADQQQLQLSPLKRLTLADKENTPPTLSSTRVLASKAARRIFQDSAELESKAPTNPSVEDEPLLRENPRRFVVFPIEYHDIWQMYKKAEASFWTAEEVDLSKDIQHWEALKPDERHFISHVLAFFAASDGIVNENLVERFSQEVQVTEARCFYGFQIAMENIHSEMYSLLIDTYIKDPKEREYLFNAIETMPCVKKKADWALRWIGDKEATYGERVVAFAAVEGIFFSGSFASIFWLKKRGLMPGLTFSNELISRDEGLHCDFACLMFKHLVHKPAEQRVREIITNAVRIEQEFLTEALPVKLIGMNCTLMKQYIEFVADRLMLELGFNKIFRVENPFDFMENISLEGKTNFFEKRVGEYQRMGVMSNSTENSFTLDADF
Description: The time-dependent tyrosyl radical reduction in mR2 RNR by equimolar concentrations of TSCs and their respective copper(II) complexes, under reducing conditions, is shown in Figure 15. […] The favorable impact of the copper(II) coordination on the HL^2 inhibitory activity is quite obvious, when the ability to quench the tyrosyl radical by HL^2 is compared to that of 2′.
The samples contained 20 μM mR2 in 50 mM HEPES buffer, pH 7.60/100 mM KCl, 20 μM compound in 1% (v/v) DMSO/H2O, and 2 mM DTT. […]
2.6. Tyrosyl radical reduction in mouse R2 RNR protein
The tyrosyl radical reduction in mR2 protein by HL1, HL2, HL3, Cu(HL1)Cl2, [Cu(L2)Cl],
Cu(HL3)Cl2, HL1a’, HL1a’’, and HL2c´·CH3COOH was measured by EPR spectroscopy at 30 K,
on a Bruker Elexsys II E540 EPR spectrometer with an Oxford Instruments ER 4112HV helium
cryostat, as described previously.12,13 mR2 protein was expressed, purified, and iron -reconstituted
as described previously, 14 and passed through a 5 mL HiTrap desalting column (GE Healthcare)
as §31, §32
dithiothreitol (DTT) were incubated for indicated times and quickly frozen in cold isopentane. The
same samples were used for repeated incubations at room temperature. […]
Furthermore, the intrinsic reaction coordinate (IRC) analysis was
performed to authenticate that the transition state pertains to the desired reaction coordinate. The
IRC calculations were done at the B3LYP/6-311++G(d,p) level of theory. Molecular orbitals were
drawn using Molekel software.17
3. Schemes for assignment of resonances in HL1 – HL3 and their isomers
Scheme S1. The atom numbering for the assignment of resonances in HL1 – HL3.
(1 picture or pasted object on this page, not shown here)

Structure (SMILES): C/C(=N\NC(N)=S)c1ccccn1 [AcTSC, 2-acetylpyridine TSC]
- IC50 [1]: 2.5 to 3.6 µM
- log D7.4 [2]: +1.02

Structure (SMILES): [Cl][Cu][Cl] [CuCl2, copper(II) chloride]
- IC50 [3]: 19.7 µM
- IC50 [4]: 20 µM
- IC50 [5]: 24.5 µM

Structure (SMILES): NC(=S)NN=Cc1ccccn1 [FTSC, 2-formylpyridine TSC]
- IC50 [1]: 1.9 to 10.6 µM
- log D7.4 [2]: +0.73

Structure (SMILES): Nc1ccn([C@@H]2O[C@H](CO)[C@@H](O)C2(F)F)c(=O)n1 [Gemcitabine, reference compound]
- G1 phase cells [6]: 26.8%
- S phase cells [6]: 62.3%

Structure (SMILES): Cc1cc(Nc2nnc(-c3ccccn3)s2)cc(C)c1O [HL^1a′]
- IC50 [7]: > 25 µM
- IC50 [8]: > 25 µM
- IC50 [9]: > 25 µM
- effect on the tyrosyl radical content in the presence of DTT [10]: cause an increase in the radical content
- effect on the tyrosyl radical in the absence of DTT [10]: do not have an effect

Structure (SMILES): CC1=CC(=Nc2nnc(-c3ccccn3)s2)C=C(C)C1=O [HL^1a″]
- IC50 [7]: > 25 µM
- IC50 [8]: > 25 µM
- IC50 [9]: > 25 µM
- effect on the tyrosyl radical content in the presence of DTT [10]: cause an increase in the radical content
- effect on the tyrosyl radical in the absence of DTT [10]: do not have an effect
